Values of other authors in PMC12120261, “Responsiveness of different MET tumour alterations to type I and type II MET inhibitors” (Clinical and Translational Medicine, 2025).

Tested on: MET G1163R
Set-up: method as in PMID 31279006

Q: With `CNC(=O)c1ccc(-c2cnc3ncc(Cc4ccc5ncccc5c4)n3n2)cc1F` [capmatinib] as the compound, how does the “sensitivity of the solvent front G1163R mutation” value (“sensitivity” for short) read?
A: remains sensitive

Q: With `C[C@@H](Oc1cc(-c2cnn(C3CCNCC3)c2)cnc1N)c1c(Cl)ccc(F)c1Cl` [crizotinib, Crizotinib] as the compound, how does the “sensitivity” value read?
A: conferring resistance

Q: Which “sensitivity” value does the source give for `C[C@@H](c1ccc2nccn2c1)n1nnc2ncc(-c3cnn(C)c3)nc21` [savolitinib] here?
A: remains sensitive
